Measured values published in patent US7169567B1, “Screening assay utilizing the PTH receptor” (The General Hospital Corporation, priority 1998, dated 2007).
“Also recorded” adds a separate entry of the source. Where no end group is shown, it is not given here.

Key:
Type in all cases: cell-based
rat secretin receptor = molecular target: T1, rat secretin receptor (Rattus norvegicus, UniProt P23811); experiment: cAMP response in COS-7 cells transfected with the rat secretin receptor; conditions: PTH(1–14) 100 mM
T1 construct: expressed in transfected cells; host or cells: COS-7, transient
Procedure: FIG. 6. Specificity of the Truncated Ligand and PTH Receptor. COS-7 cells transiently transfected with either rWT-HA (A), rΔNt (B), or the intact rat secretin receptor (C), were treated with the indicated peptides for 60 min at 22° C., and the resulting intracellular cAMP levels were quantified by RIA. […] 1 mM and secretin(1–13), 100 mM. Shown are data (mean±s.e.m.) from one experiment performed in duplicate, and this was repeated twice more with equivalent results.
(§1) Intracellular cyclic AMP: Transfected COS-7 or HKRK-B7 cells were rinsed with 500 ml of binding buffer, (50 mM Tris-HCl, pH 7.7, 100 mM NaCl, 5 mM KCl, 2 mM CaC12, 5% heat-inactivated horse serum, 0.5% heat-inactivated fetal bovine serum) and 200 ml of IBMX buffer (DMEM containing 2 mM IBMX, 1 mg/ml bovine serum albumin, 35 mM Hepes-NaOH, pH 7.4) and […] of binding buffer or binding buffer containing various amounts of peptide were added. The plates were incubated for 60 minutes at room temperature. The buffer was then withdrawn and the cells were frozen on dry ice, treated with 0.5 ml of 50 mM HCl, and refrozen. After the thawing, the lysate was diluted 30-fold in dH20 and an aliquot was analyzed for cAMP content by determined radioimmunoassay using unlabeled cAMP as a standard.
In order to test whether PTH(1–14) and rΔNt retained the appropriate recognition specificity for the corresponding parent ligand, cross-reactivity experiments were done using secretin ligands and the cloned rat secretin receptor. […] Cells expressing rΔNt responded to PTH(1–34) and PTH(1–14) but not to secretin(1–27) (1 mM) or secretin(1–13) ([…]) (FIG. 5B). Thus, the recognition specificity of PTH(1–14) and rΔNt appear to replicate that of the intact parent molecules. No evidence for relaxed specificity was detected in these studies (FIG. 6).

human PTH-1 receptor = molecular target: T2, human PTH-1 receptor (Homo sapiens, UniProt Q03431); experiment: cAMP-stimulating activity in HKRK-B7 cells (LLC-PK1 stably transfected with human PTH-1 receptor), RIA; parameters: maximum cAMP response: dose or concentration left out as unconfirmed; conditions: for increase in intracellular cAMP levels relative to the basal cAMP level: 60 min at 22° C.
T2 construct: expressed in transfected cells; host or cells: HKRK-B7 (LLC-PK1 stably transfected, pCDNA-1-based plasmid)
T2 sequence (Q03431 27-593): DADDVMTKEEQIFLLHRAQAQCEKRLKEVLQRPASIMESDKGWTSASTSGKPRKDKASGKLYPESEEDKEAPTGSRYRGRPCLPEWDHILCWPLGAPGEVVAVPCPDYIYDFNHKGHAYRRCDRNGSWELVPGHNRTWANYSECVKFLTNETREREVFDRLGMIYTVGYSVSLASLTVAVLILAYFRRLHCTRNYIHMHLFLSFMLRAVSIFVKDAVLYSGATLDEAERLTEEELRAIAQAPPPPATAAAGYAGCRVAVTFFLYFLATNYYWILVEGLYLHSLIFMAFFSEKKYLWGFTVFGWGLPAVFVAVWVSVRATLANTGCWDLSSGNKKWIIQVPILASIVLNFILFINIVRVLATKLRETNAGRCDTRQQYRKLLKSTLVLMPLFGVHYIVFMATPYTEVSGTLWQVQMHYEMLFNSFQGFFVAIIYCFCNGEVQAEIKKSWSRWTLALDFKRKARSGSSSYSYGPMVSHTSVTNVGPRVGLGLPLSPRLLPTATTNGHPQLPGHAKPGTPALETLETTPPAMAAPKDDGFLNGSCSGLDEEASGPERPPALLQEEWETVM
Procedure: (§2) FIG. 2. cAMP-stimulating Activity of PTH Fragments in LLC-PK1 Cells. A) Rat PTH(1–34) analog or amino-terminal rPTH fragments were tested for cAMP-stimulating activity in an LLC-P1-derived cell line (HKRK-B7) stably transfected with the human PTH-1 receptor. Cells were treated with peptide at the indicated doses for 60 min at 22° C. Intracellular cAMP was measured by RIA, as described in Experimental Procedures. Shown are combined data (mean±s.e.m.) from 3 separate experiments, each performed in duplicate. B) HKRK-B7 cells, or untransfected LLC-PK1 were treated with rPTH(1–34) or rPTH(1–14), and intracellular cAMP was measured. Shown are data (mean±s.e.m.) from a single representative experiment performed in duplicate.
FIG. 3. Alanine-scan of PTH(1–14). HKRK-B7 cells were treated with 100 mM of one of 14 different rPTH(1–14) analogs, each having a different alanine-substitution at the indicated amino acid position. The resulting cAMP levels were determined as described in Experimental Procedures. Shown are the combined data (mean±s.e.m.) from three separate experiments, each performed in duplicate. The mean (mean±s.e.m.) basal cAMP levels observed in the three experiments was 2.1±0.1 pmole/well, and the maximum response to rPTH(1–34) at 0.1 mM was 254±16 pmole/well.
Cell Culture and DNA Transfection: COS-7 and HKRK-B7 cells were cultured at 37° C. in Dulbecco's modified Eagle's medium (DMEM) supplemented with fetal bovine serum (10%); penicillin G (20 units/ml), streptomycin sulfate (20 μg/ml) and amphotericin B (0.05 μg/ml) in a humidified atmosphere containing 5% CO2. Twenty-four to 16 hours prior to assay, cells in 24-well plates were shifted to a humidified incubator containing 5% CO2 that was set at 33° C. Stock solutions of EGTA/trypsin and antibiotics were from GIBCO; fetal bovine serum was from Hyclone Laboratories (Logan, Utah). Derivation and characterization of the HKRK-B7 cell line by stable transfection of LLC-PK1 cells with a pCDNA-1-based plasmid (In Vitrogen, San Diego, Calif.) encoding the hPTH-1 receptor was described previously (Takasu, H. and Bringhurst, F., Endocrinology, in press (1998)). These cells express PTH-1 receptors at a surface density of about 1×10^6 PTH-binding sites per cell. The HKRK-B7 cells were used for functional assays 24 to 72 hours after the cell monolayer reached confluency.
as §1
Amino-terminal peptide fragments based on the rat PTH sequence and ranging in length from PTH(1–9) to PTH(1–15) were synthesized and tested for activity in an LLC-PK1-derived cell line called HKRK-B7 which stably expresses high levels (1×10^6 receptors/cell) of the cloned human PTH-1 receptor (Takasu, H. and Bringhurst, F., Endocrinology, in press (1998)).

[1] = tested on: parental LLC-PK1 cells (no PTH receptors, endogenous calcitonin receptors); experiment: cAMP response in untransfected parental LLC-PK1 cells; conditions: untransfected LLC-PK1 cells expressing calcitonin receptor but no PTH receptors
Procedure: as §2
as §1, with “The buffer was then withdrawn and the cells were frozen on dry ice, treated with 0.5 ml of 50 mM HCl, and refrozen.” left out, “standard. […]” for “standard.”

T1 sequence (P23811 26-449): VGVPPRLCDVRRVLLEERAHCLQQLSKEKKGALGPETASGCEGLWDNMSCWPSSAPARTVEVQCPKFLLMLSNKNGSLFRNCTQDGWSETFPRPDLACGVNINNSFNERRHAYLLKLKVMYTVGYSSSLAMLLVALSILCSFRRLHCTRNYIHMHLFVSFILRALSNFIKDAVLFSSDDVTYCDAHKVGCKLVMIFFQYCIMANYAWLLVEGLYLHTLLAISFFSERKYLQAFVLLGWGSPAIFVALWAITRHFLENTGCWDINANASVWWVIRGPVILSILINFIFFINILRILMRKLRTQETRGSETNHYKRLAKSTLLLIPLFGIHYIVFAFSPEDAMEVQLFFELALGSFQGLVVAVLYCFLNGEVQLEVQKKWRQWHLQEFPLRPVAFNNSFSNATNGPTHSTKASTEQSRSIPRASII

CCCC[C@H](NC(=O)[C@H](CCCNC(=N)N)NC(=O)[C@H](CCC(=O)O)NC(=O)[C@@H](NC(=O)[C@H](CO)NC(=O)[C@H](C)NC(=O)[C@H](CC(C)C)NC(=O)[C@H](Cc1c[nH]cn1)NC(=O)[C@H](CCCCN)NC(=O)CNC(=O)[C@H](CC(C)C)NC(=O)[C@H](CC(N)=O)NC(=O)[C@H](Cc1c[nH]cn1)NC(=O)[C@H](CCCC)NC(=O)[C@H](CC(C)C)NC(=O)[C@H](CCC(N)=O)NC(=O)[C@@H](NC(=O)[C@H](CCC(=O)O)NC(=O)[C@H](CO)NC(=O)[C@@H](NC(=O)[C@H](C)N)C(C)C)[C@@H](C)CC)C(C)C)C(=O)N[C@@H](CCC(N)=O)C(=O)N[C@@H](Cc1c[nH]c2ccccc12)C(=O)N[C@@H](CC(C)C)C(=O)N[C@@H](CCCNC(=N)N)C(=O)N[C@@H](CCCCN)C(=O)N[C@@H](CCCCN)C(=O)N[C@@H](CC(C)C)C(=O)N[C@@H](CCC(N)=O)C(=O)N[C@@H](CC(=O)O)C(=O)N[C@H](C(=O)N[C@@H](Cc1c[nH]cn1)C(=O)N[C@@H](CC(N)=O)C(=O)N[C@@H](Cc1ccc(O)cc1)C(N)=O)C(C)C [PTH(1–34), [Nle^8,21,Tyr^34]rPTH-(1–34)NH2]
cAMP response of secretin receptor cells (in words) (rat secretin receptor): did not respond | EC50 (human PTH-1 receptor): ~2 nM | increase in intracellular cAMP levels relative to the basal cAMP level (human PTH-1 receptor; HKRK-B7 cells): 50 fold | maximum cAMP response (human PTH-1 receptor; HKRK-B7 cells, mean±s.e.m. of three experiments, basal 2.1±0.1 pmole/well): 254±16 pmole/well | cAMP responsiveness of parental LLC-PK1 cells [1]: unresponsive

PTH(1–14): Amino-terminal peptide fragment based on the rat PTH sequence, residues 1–14, C-terminally amidated (AVSEIQLMHNLGKH-NH2)
cAMP response of secretin receptor cells (in words) (rat secretin receptor): did not respond | doses required for cAMP activation compared with the dose required for PTH(1–34) (human PTH-1 receptor; HKRK-B7 cells): five to six orders of magnitude higher | increase in intracellular cAMP levels relative to the basal cAMP level (human PTH-1 receptor; HKRK-B7 cells): about 20 fold | potency relative to PTH(1–34) with the intact receptor (human PTH-1 receptor; intact receptor): about five orders of magnitude weaker | cAMP responsiveness of parental LLC-PK1 cells [1]: did not activate; also recorded: unresponsive
